{
  "source": "patent US12377176B2",
  "about": "“Cancer diagnostic imaging agents” (Technische Universität München, priority 2019, dated 2025)",
  "key": {"[1]": {"experiment": "Octanol-water partition coefficient (n-octanol/PBS pH 7.4)", "assay_type": "physicochemical", "description": "Approximately 1 MBq of the labeled tracer was dissolved in 1 mL of a 1:1 mixture (by volumes) of phosphate buffered saline (PBS, pH 7.4) and n-octanol in an Eppendorf tube. After vigorous mixing of the suspension for 3 minutes at room temperature, the vial was centrifuged at 15000 g for 3 minutes (Biofuge 15, Heraus Sepatech, Osterode, Germany) and 100 μL aliquots of both layers were measured in a gamma counter. The experiment was repeated at least six times.\nDetermianation of the logP values was carried out in phosphate buffered saline (PBS, pH 7.4) and n-octanol (=logPoct/PBS)."}, "LNCaP cells": {"tested_on": "LNCaP cells", "experiment": "Internalization into LNCaP cells, relative to ([125I]I-BA)KuE", "assay_type": "cell-based", "description": "Data is corrected for non-specific binding ([…]) and expressed as mean±SD (n=3).\nSubsequent to the removal of the culture medium, the cells were washed once with 500 μL DMEM-F12 (5% BSA) and left to equilibrate for at least 15 min at 37° C. in 200 μL DMEM-F12 (5% BSA). Each well was treated with either 25 μL of either DMEM-F12 (5% BSA) or a 100 μM PMPA solution for blockade. Next, 25 μL of the ^68Ga/^18F-labeled PSMA inhibitor (5.0 nM) was added and the cells incubated at 37° C. for 60 min. The experiment was terminated by placing the 24-well plate on ice for 3 min and consecutive removal of the medium. Each well was rinsed with 250 μL HBSS and the fractions from these first two steps combined, representing the amount of free radioligand. Removal of surface bound activity was accomplished by incubation of the cells with 250 μL of ice-cold PMPA (10 μM in PBS) solution for 5 min and rinsed again with another 250 μL of ice-cold PBS. The internalized activity was determined by incubation of the cells in 250 μL 1 M NaOH and the combination with the fraction of a subsequent wash step with 250 μL 1.0 M NaOH. Each experiment (control and bloackde) was performed in triplicate. Free, surface bound and internalized activity was quantified in a γ-counter. […] Data were corrected for non-specific internalization and normalized to the specific-internalization observed for the radioiodinated reference compound."}, "[2]": {"experiment": "Metabolic stability and 18F/19F isotopic exchange in mouse urine (radio-HPLC, radio-TLC)", "assay_type": "in vitro ADME, mice", "description": "Analytical reversed-phase high pressure chromatography (RP-HPLC) were performed using Shimadzu gradient systems (Shimadzu Deutschland GmbH, Neufahrn, Germany), equipped with a SPD-20A UV/Vis detector (220 nm, 254 nm). […] Eluents for all HPLC operations were water (solvent A) and acetonitrile (solvent B), both containing 0.1% trifluoroacetic acid. […] The gradient for all HPLC operations was: 5% B isocratic 0-3 min, 25-35% B 3-43 min, 95-95% B 43-48 min.\nFor radio-thin-layer chromatography, aluminum sheets coated with silica gel 60 RP-18 F254s were used with a mobile phase consisting of a 3:2 mixture (v/v) of MeCN in H2O supplemented with 10% of 2 M aqueous NaOAc and 1% of TFA. Analysis was performed using either a Scan-RAM radio-TLC detector (LabLogic Systems Ltd., Sheffield, United Kingdom) or a CR 35 BIO phosphorimager (Duerr Medical GmbH, Bietigheim-Bissingen, Germany).\nFor in vivo μmetabolism studies, 8-12 MBq (<0.6 nmol) of the respective ^18F-labeled ligand (rhPSMA-7.1-7.4) was injected into the tail vein of female healthy CB17-SCID mice (n=4). Mice were left under anesthesia for 30 min and the urine was collected using a bladder catheter. Urine samples were pooled and centrifuged for 5 min at 9000 rpm to remove suspended solids. The supernatant was directly used for radio-HPLC analysis with the above mentioned conditions. […]"}, "PSMA": {"target": "T1, PSMA (Homo sapiens, UniProt Q04609)", "T1 construct": "endogenous in cells; host or cells: LNCaP cells", "T1 sequence (Q04609 whole entry)": "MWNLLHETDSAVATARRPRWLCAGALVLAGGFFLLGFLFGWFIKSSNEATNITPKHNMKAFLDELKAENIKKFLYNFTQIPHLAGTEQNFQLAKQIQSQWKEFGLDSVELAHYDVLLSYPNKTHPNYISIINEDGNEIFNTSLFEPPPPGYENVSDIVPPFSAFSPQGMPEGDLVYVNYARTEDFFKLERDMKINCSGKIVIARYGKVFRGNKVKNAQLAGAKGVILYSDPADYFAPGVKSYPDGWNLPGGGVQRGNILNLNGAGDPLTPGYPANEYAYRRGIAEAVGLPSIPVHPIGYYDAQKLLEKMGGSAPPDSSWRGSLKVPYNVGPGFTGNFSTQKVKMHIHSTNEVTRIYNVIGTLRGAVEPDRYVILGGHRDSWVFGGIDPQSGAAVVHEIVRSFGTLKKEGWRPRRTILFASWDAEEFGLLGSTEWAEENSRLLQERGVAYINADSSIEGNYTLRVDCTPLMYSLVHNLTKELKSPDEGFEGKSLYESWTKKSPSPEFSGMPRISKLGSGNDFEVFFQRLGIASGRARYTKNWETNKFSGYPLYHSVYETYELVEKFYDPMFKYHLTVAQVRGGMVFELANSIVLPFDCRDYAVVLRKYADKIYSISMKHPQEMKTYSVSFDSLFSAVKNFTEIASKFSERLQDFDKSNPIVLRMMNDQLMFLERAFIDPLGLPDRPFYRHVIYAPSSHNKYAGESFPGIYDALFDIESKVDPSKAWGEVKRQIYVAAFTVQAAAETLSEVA", "experiment": "Determination of IC50: PSMA affinity, competition with ([125I]I-BA)KuE on LNCaP cells", "assay_type": "binding", "conditions": "LNCaP cells, [125I]IB-KuE 0.2 nM, 1 h, 4 °C", "description": "After removal of the culture medium, the cells were treated once with 500 μL of HBSS (Hank's balanced salt solution, Biochrom, Berlin, Germany, with addition of 1% bovine serum albumin (BSA)) and left 15 min on ice for equilibration in 200 μL HBSS (1% BSA). […] Quantification of bound and free radioligand was accomplished in a γ-counter."}, "[3]": {"tested_on": "LNCaP tumor-bearing CB-17 SCID mice", "conditions": "male, mouse, in vivo, 1 h", "procedure": "(§1) To establish tumor xenografts, LNCaP cells (10^7 cells/200 μL) were suspended in a 1:1 mixture (v/v) of Dulbecco modified Eagle medium/Nutrition Mixture F-12 with Glutamax-I (1:1) and Matrigel (BD Biosciences, Germany), and inoculated subcutaneously onto the right shoulder of 6-8 weeks old CB17-SCID mice (Charles River, Sulzfeld, Germany). Mice were used for when tumors had grown to a diameter of 5-8 mm (3-4 weeks after inoculation).\n(§2) Approximately 1-2 MBq (<0.2 nmol) of the ^18F-labeled PSMA inhibitor was injected into the tail vein of LNCaP tumor-bearing male CB-17 SCID mice and sacrificed after 1 h post injection (n=4-5). Selected organs were removed, weighted and measured in a γ-counter"}, "[4]": {"tested_on": "LNCaP tumor-bearing CB-17 SCID mice", "experiment": "Biodistribution in LNCaP tumor-bearing SCID mice, 1 h p.i., with or without PMPA", "procedure": "as §1, §2"}},
  "note": "Where “and” joins values, the source holds several entries; their conditions need not be identical. Equal values may be shown once. Read-outs that look alike come from different tables or passages of the source.",
  "data": [
    {"compound": "CC(C)(C)[Si](F)(c1ccc(C(=O)NC[C@@H](NC(=O)CC[C@@H](C(=O)O)N2CCN(CC(=O)O)CCN(CC(=O)O)CCN(CC(=O)O)CC2)C(=O)N[C@H](CCCCNC(=O)CCC(=O)NCCC[C@@H](NC(=O)CC[C@H](NC(=O)N[C@@H](CCC(=O)O)C(=O)O)C(=O)O)C(=O)O)C(=O)O)cc1)C(C)(C)C", "note": "[rhPSMA7.3, [^19F][^natGa]D-Dap-S-DOTAGA-rhPSMA7, metal not drawn]", "values": [
      {"measurement": "logP", "setting": "[1]; n-octanol/PBS, pH 7.4, octanol/PBS7.4, mean of individual measurements, read-out: log P Mean", "result": -3.26},
      {"measurement": "individual log P measurements", "setting": "[1]; octanol/PBS7.4, single measurements", "result": "−3.02 and −3.06 and −3.07 and −2.86 and −3.39 and −3.33 and −3.34 and −3.20 and −3.40 and −3.41 and −3.48 and −3.49 and −3.32 and −3.45 and −3.53 and −3.43 and −3.56 and −3.03 and −3.08"},
      {"measurement": "internalization rate Mean", "setting": "LNCaP cells; LNCaP cells, 1 h, 37 °C, c=0.5 nM, mean", "result": "161.41 % of [^125I]IB-KuE"},
      {"measurement": "individual internalization rates", "setting": "LNCaP cells; LNCaP cells, 1 h, 37 °C, c=0.5 nM, single measurements", "result": "156.6 % of [^125I]IB-KuE and 156.0 % of [^125I]IB-KuE and 171.7 % of [^125I]IB-KuE"},
      {"measurement": "internalization", "setting": "LNCaP cells; mean ± SD as quoted in the discussion", "result": "161.41%±8.88"},
      {"measurement": "[F-18]rhPSMA7.3 share of radioactivity in urine", "setting": "[2]; after addition of 5 nmol [F-19]rhPSMA7-3, room temperature", "result": 85.8, "unit": "%"},
      {"measurement": "[F-18]rhPSMA7.3 share of radioactivity in urine", "setting": "[2]; radioactive urine before addition of cold [F-19]rhPSMA7.3", "result": 79.4, "unit": "%"},
      {"measurement": "IC50", "setting": "PSMA; HBSS+1% BSA, single measurements, read-out: individual IC50 measurements", "result": "3.17 nM and 2.91 nM and 5.35 nM and 5.74 nM and 4.59 nM and 4.45 nM"},
      {"measurement": "IC50", "setting": "PSMA; mean of the individual measurements, read-out: IC50 Mean", "result": 4.37, "unit": "nM"},
      {"measurement": "Biodistribution adrenals", "setting": "[3]", "result": "2.2 ± 0.83", "unit": "% ID/g"},
      {"measurement": "Biodistribution blood", "setting": "[3]", "result": "0.96 ± 0.24", "unit": "% ID/g"},
      {"measurement": "Biodistribution bone", "setting": "[3]", "result": "0.38 ± 0.32", "unit": "% ID/g"},
      {"measurement": "Biodistribution heart", "setting": "[3]", "result": "0.87 ± 0.17", "unit": "% ID/g"},
      {"measurement": "Biodistribution intestine", "setting": "[3]", "result": "0.35 ± 0.07", "unit": "% ID/g"},
      {"measurement": "Biodistribution kidneys", "setting": "[3]", "result": "292 ± 45.1", "unit": "% ID/g"},
      {"measurement": "Biodistribution liver", "setting": "[3]", "result": "0.69 ± 0.13", "unit": "% ID/g"},
      {"measurement": "Biodistribution lung", "setting": "[3]", "result": "2.2 ± 0.35", "unit": "% ID/g"},
      {"measurement": "Biodistribution muscle", "setting": "[3]", "result": "0.33 ± 0.15", "unit": "% ID/g"},
      {"measurement": "Biodistribution pancreas", "setting": "[3]", "result": "0.63 ± 0.44", "unit": "% ID/g"},
      {"measurement": "Biodistribution spleen", "setting": "[3]", "result": "16.6 ± 2.6", "unit": "% ID/g"},
      {"measurement": "Biodistribution stomach", "setting": "[3]", "result": "0.44 ± 0.23", "unit": "% ID/g"},
      {"measurement": "Biodistribution tumor", "setting": "[3]", "result": "18.3 ± 7.2", "unit": "% ID/g"}
    ]},
    {"compound": "[^19F][^natGa]D/L-Dap-R/S-DOTAGA-rhPSMA7 [rhPSMA7-rac]", "values": [
      {"measurement": "Biodistribution adrenals", "setting": "[4]", "result": "3.0 ± 0.45", "unit": "% ID/g"},
      {"measurement": "Biodistribution blood", "setting": "[4]", "result": "1.1 ± 0.03", "unit": "% ID/g"},
      {"measurement": "Biodistribution bone", "setting": "[4]", "result": "0.91 ± 0.11", "unit": "% ID/g"},
      {"measurement": "Biodistribution heart", "setting": "[4]", "result": "0.69 ± 0.07", "unit": "% ID/g"},
      {"measurement": "Biodistribution intestine", "setting": "[4]", "result": "0.60 ± 0.27", "unit": "% ID/g"},
      {"measurement": "Biodistribution kidneys", "setting": "[4]", "result": "71.3 ± 13.3", "unit": "% ID/g"},
      {"measurement": "Biodistribution liver", "setting": "[4]", "result": "0.67 ± 0.07", "unit": "% ID/g"},
      {"measurement": "Biodistribution lung", "setting": "[4]", "result": "1.4 ± 0.17", "unit": "% ID/g"},
      {"measurement": "Biodistribution muscle", "setting": "[4]", "result": "0.36 ± 0.06", "unit": "% ID/g"},
      {"measurement": "Biodistribution pancreas", "setting": "[4]", "result": "0.60 ± 0.10", "unit": "% ID/g"},
      {"measurement": "Biodistribution spleen", "setting": "[4]", "result": "11.1 ± 2.3", "unit": "% ID/g"},
      {"measurement": "Biodistribution stomach", "setting": "[4]", "result": "0.49 ± 0.07", "unit": "% ID/g"},
      {"measurement": "Biodistribution tumor", "setting": "[4]", "result": "10.4 ± 0.67", "unit": "% ID/g"}
    ]}
  ]
}
